Data reported in PMC9305971, “Development of [^18F]AmBF3 Tetrazine for Radiolabeling of Peptides: Preclinical Evaluation and PET Imaging of [^18F]AmBF3-PEG7-Tyr^3-Octreotide in an AR42J Pancreatic Carcinoma Model” (Bioconjugate Chemistry, 2022).

How the values were obtained:
[1] = Lipophilicity, shake-flask log D7.4 (1-octanol/PBS); type: physicochemical; details: 1-octanol/PBS pH 7.4, n = 4
Protocol: Lipophilicity was determined with the shake-flask method as a distribution coefficient between 0.01 M PBS and octanol. Purified radiotracer [^18F]6 (10 μL, ∼200 kBq, 1.5 nmol), [^18F]14 (20 μL, ∼260 kBq, 125 pmol), or [^18F]15 (20 μL, 144 kBq, 67 pmol) in a polypropylene tube containing 1500–2000 μL of each in a 1:1 mixture (1-octanol, 0.02 M PBS, pH 7.4) was shaken mechanically (500 rpm, 10 min) and centrifuged (1000g, 5 min), and samples from each layer (400 μL, n = 4) were measured with a γ-counter. The log D7.4 was calculated as a distribution between the two layers at pH 7.4. [^18F]6 (10 MBq, 40 nmol) diluted with 0.01 M PBS at pH 7.4 (≤1% ethanol, 5300 μL) was incubated for 180 min. At selected time points (5, 30, 60, 90, 120, 150, and 180 min), a sample (100 μL) was injected to radio-HPLC. [^18F]14 and [^18F]15 (29 MBq, 10 nmol) diluted in 2000 μL of 0.01 M PBS (≤1% ethanol) were left to incubate. A sample of [^18F]14 (100 μL) after 9 hours and [^18F]15 at selected time points between 30 and 335 min were injected into HPLC (method A). [^18F]15 (0.6 MBq, 0.134 nmol, 200 μL) formulated in ≤5% EtOH-1 × PBS was added and incubated in 2000 μL of PBS-50% human plasma at 37 °C. A 100 μL sample (at 60, 120, 180, and 240 min, n = 2) was diluted with 200 μL of cold acetonitrile and centrifuged (10,000g, 5 min). After centrifugation, a 100 μL sample of the supernatant was injected for radio-HPLC analysis. […]
Lipophilicity. The lipophilicities were determined with the shake-flask method as a distribution profile between 0.01 M PBS and octanol at pH 7.4. The distribution of the radiolabeled compound between the octanol and the PBS layers was calculated according

[2] = PET/CT and ex vivo biodistribution of [18F]6 in healthy mice; set-up: species or system male SCID and female C57BL/6JRj mice; details: i.v.; for bone uptake in tibia / gallbladder uptake: 270 min post injection
Protocol: [^18F]6 in 10% ethanol–0.01 M PBS was administered intravenously to male Fox Chase SCID mice (CB.17 SCID) (11.0 ± 0.5 MBq, ∼11 nmol, ∼150 μL, n = 4) and healthy female C57BL/6JRj mice (11.3 ± 0.3 MBq, ∼11 nmol, ∼150 μL, n = 4) under 2% isoflurane anesthesia. The PET/CT image was acquired with Inveon PET/CT for 60 min followed by a 15 min static scan 4 h after injection of the tracer. The images of the dynamic scan were reconstructed to time frames 60 × 10, 10 × 60, 4 × 300, and 3 × 600 s. After the second PET imaging (t = 270 ± 1.9 min post injection, n = 4), the organs were harvested and the radioactivity in each tissue sample was measured with a γ-counter and reported as a percentage of injected dose per gram of tissue (% ID/g). [^18F]15 was formulated in 4% ethanol in 0.01 M PBS and administered intravenously (0.2 nmol, 0.80 ± 0.30 MBq; tracer: 150 μL; tracer + blocking dose: 200 μL) to AR42J tumor-bearing Rj:NMRI-Foxn1^nu/nu mice (n = 4) under 2% isoflurane anesthesia. PET/CT images were acquired with Molecubes PET (β-CUBE) coupled with a CT (X-CUBE) (MOLECUBES NV, Ghent, Belgium) with two mice being imaged at the same time under 2% isoflurane anesthesia. Images were reconstructed to time frames 30 × 10, 15 × 60, 4 × 300, and 5 × 600 s. Quantitative image analysis was done with Carimas software (v 2.10, Turku PET Centre, Turku, Finland). Spherical ROIs were hand-drawn based on anatomical CT data and PET signal for the desired organs. The results are presented as standardized uptake values (SUVs).

[3] = Hydrolytic stability in 0.01 M PBS / formulated solution (radio-HPLC); type: physicochemical; details: t = 3 h, 0.01 M PBS, pH 7.4
Protocol: Lipophilicity was determined with the shake-flask method as a distribution coefficient between 0.01 M PBS and octanol. Purified radiotracer [^18F]6 (10 μL, ∼200 kBq, 1.5 nmol), [^18F]14 (20 μL, ∼260 kBq, 125 pmol), or [^18F]15 (20 μL, 144 kBq, 67 pmol) in a polypropylene tube containing 1500–2000 μL of each in a 1:1 mixture (1-octanol, 0.02 M PBS, pH 7.4) was shaken mechanically (500 rpm, 10 min) and centrifuged (1000g, 5 min), and samples from each layer (400 μL, n = 4) were measured with a γ-counter. The log D7.4 was calculated as a distribution between the two layers at pH 7.4. [^18F]6 (10 MBq, 40 nmol) diluted with 0.01 M PBS at pH 7.4 (≤1% ethanol, 5300 μL) was incubated for 180 min. At selected time points (5, 30, 60, 90, 120, 150, and 180 min), a sample (100 μL) was injected to radio-HPLC. [^18F]14 and [^18F]15 (29 MBq, 10 nmol) diluted in 2000 μL of 0.01 M PBS (≤1% ethanol) were left to incubate. A sample of [^18F]14 (100 μL) after 9 hours and [^18F]15 at selected time points between 30 and 335 min were injected into HPLC (method A). [^18F]15 (0.6 MBq, 0.134 nmol, 200 μL) formulated in ≤5% EtOH-1 × PBS was added and incubated in 2000 μL of PBS-50% human plasma at 37 °C. A 100 μL sample (at 60, 120, 180, and 240 min, n = 2) was diluted with 200 μL of cold acetonitrile and centrifuged (10,000g, 5 min). After centrifugation, a 100 μL sample of the supernatant was injected for radio-HPLC analysis.

logD [1]: -0.13 ± 0.06
bone uptake in tibia ([2]; C57BL/6JRj female mice): 0.4 ± 0.1 % ID/g
gallbladder uptake ([2]; C57BL/6JRj female mice): 6.4 ± 2.5 % ID/g
bone uptake in tibia ([2]; SCID male mice): 0.3 ± 0.1 % ID/g
gallbladder uptake ([2]; SCID male mice): 3.5 ± 2.4 % ID/g
major elimination pathway ([2]; PET/CT and ex vivo biodistribution 270 min post injection): renal clearance
hydrolytic stability, intact [3]: ≥ 99%
Compound: C[N+](C)(CCNC(=O)Cc1ccc(-c2nncnn2)cc1)C[B-](F)(F)[18F] [[^18F]6]
